Test results taken from article PMC4865820, “Branched Peptide, B2088, Disrupts the Supramolecular Organization of Lipopolysaccharides and Sensitizes the Gram-negative Bacteria” (Scientific Reports, 2016).
Where two headings read alike, the source gives them in different places. Positions of bridges follow the written chain, without caps; N, C: chain ends. Non-standard residues stand in square brackets, D forms with d. Residues, ends and D or L forms follow the SMILES beside them. Chains are numbered I, II in the order given. *: point of attachment. X1 = CC[C@H](C)CCCCC(=O)*; Dab = NCC[C@H](N)C(=O)O

How the values were obtained:
P. aeruginosa DR4877/07 = test: microbe, parasite or virus in culture; details: for MIC: Pseudomonas aeruginosa, DR4877/07, 24 h, read-out: MIC of antibiotics
Procedure: MIC of each peptide was determined using the microdilution method in a 96 well microtitre plates (SPL Life Sciences Co., Ltd, Korea). Two-fold serial dilutions of each peptide in Mueller-Hinton Broth (MHB) was prepared from a 1 mg/ml stock solution of the peptide in the same broth, to obtain a final concentration in the range of 0.0976–50 μg/ml in each well. Bacterial suspensions (P. aeruginosa ATCC 27853, P. aeruginosa 4877, P. aeruginosa 23155, K. pneumoniae ATCC 10031 and K. pneumoniae 4299) were prepared by suspending the overnight cultured bacteria in saline and adjusting the inoculum to ~10^8 colony forming units (CFU) per ml. A further 150-fold dilution was then prepared in MHB to achieve a final cell density of 10^5–10^6 CFU/ml. In each well, 100 μl of inoculum was mixed with the equal volume of peptides at their 2× concentration. Positive and negative controls contained 200 μl of inoculum (without any peptide) and broth alone (no peptide/inoculum) respectively. Another negative control in which MHB containing 200 μl of peptide alone in its highest concentration tested (50 μg/ml) was also included to ensure that the optical density measured in the test wells was not due to turbidity of the peptides in solution. The 96 well polystyrene plates were then incubated at 37 °C for 24 h and the optical density at 600 nm (OD600) was measured every 30 min continuously using a TECAN microplate reader (TECAN Infinite 200, Austria).

P. aeruginosa ATCC 27853 = assay type: cell-based; details: for Fractional inhibitory concentration of peptide/PMB, combination with Genta: first number in parenthesis; for Fractional inhibitory concentration of peptide/PMB, combination with Genta / Fractional inhibitory concentration of antibiotic, Genta combination: ATCC 27853; for Fractional inhibitory concentration of antibiotic, Genta combination: second number in parenthesis
Procedure, shortened: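 Checkerboard combinations of peptide and antibiotic, each 2-fold diluted up to 1× MIC in MHB, were tested against ~10^6 CFU/ml final inoculum. Plates were incubated 24 h at 37 °C, with growth read at OD600. FICI was the sum of the combination-to-alone MIC ratios for each agent, and the lowest FICI from duplicate experiments was reported.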

P. aeruginosa 23155 = assay type: cell-based
Procedure, shortened: (§1)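 Peptides two-fold diluted in Mueller-Hinton Broth (0.0976–50 μg/ml final) against 10^5–10^6 CFU/ml inoculum, 37 °C for 24 h with OD600 monitored every 30 min. MIC = lowest concentration with no visible growth; two independent duplicates.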

K. pneumoniae ATCC10031 = assay type: cell-based
Procedure, shortened: as §1

K. pneumonia 4299 = test: Checkerboard assay; assay type: cell-based, K. pneumoniae; details: for Fractional inhibitory concentration of B2088 used for FICI calculation: first number in parenthesis, in combination with the labelled antibiotic; for Fractional inhibitory concentration of antibiotic used for FICI calculation: second number in parenthesis, in combination with B2088
Procedure: (§2) The synergism between peptides with conventional antibiotics was evaluated using checkerboard assays. For a comparison polymyxin B (PMB) was also tested against each antibiotic. From their stock solutions, two-fold dilutions of each antibiotic and peptide to 1× MIC were prepared in MHB. 50 μl of each peptide concentration was added into the wells of a 96-well polystyrene plates (SPL Life Sciences Co. Ltd, Korea) in a horizontal orientation and the same volume of each antibiotic concentration were then added in a vertical orientation. Bacterial suspensions were prepared in MHB to yield final cell density of ~10^6 CFU/ml and 100 μl of bacterial suspension was mixed with each peptide-antibiotic combinations. This procedure was repeated for wells containing 200 μl of peptide alone and 200 μl of antibiotic alone in various concentrations. The positive and negative controls contained 200 μl of inoculum and MHB alone respectively. The plates were incubated at 37 °C for 24 hours and the optical density at 600 nm (OD600) was monitored as before. Fractional inhibitory concentration index (FICI) for all antibiotic- peptide combinations was calculated through the summation of (MIC of peptide in the combination/ MIC of peptide alone) and (MIC of antibiotics in combination/MIC of antibiotic alone). The experiments were performed in two independent duplicates and the combinations that gave the lowest FICI values was reported.

K. pneumonia 31158 = test: Checkerboard assay; assay type: cell-based, K. pneumoniae; details: for Fractional inhibitory concentration of B2088 used for FICI calculation: first number in parenthesis, in combination with the labelled antibiotic; for Fractional inhibitory concentration of antibiotic used for FICI calculation: second number in parenthesis, in combination with B2088
Procedure: as §2

K. pneumonia 07955 = test: Checkerboard assay; assay type: cell-based, K. pneumoniae; details: for Fractional inhibitory concentration of B2088 used for FICI calculation: first number in parenthesis, in combination with the labelled antibiotic; for Fractional inhibitory concentration of antibiotic used for FICI calculation: second number in parenthesis, in combination with B2088
Procedure: as §2

[1] = MHB, 10^5–10^6 CFU/ml, 37 °C, 24 h, two independent duplicates

| Structure (SMILES) | Minimum Inhibitory Concentration against P. aeruginosa DR4877/07 (P. aeruginosa DR4877/07; [1]) | MIC of Polymyxin B against this strain (P. aeruginosa DR4877/07; alone) | Fractional inhibitory concentration of peptide/PMB, combination with Genta (P. aeruginosa ATCC 27853) | Fractional Inhibitory Concentration Index with Genta (P. aeruginosa ATCC 27853; peptide + gentamicin, P. aeruginosa ATCC 27853) | Fractional inhibitory concentration of antibiotic, Genta combination (P. aeruginosa ATCC 27853) | Minimum Inhibitory Concentration against P. aeruginosa 23155 (P. aeruginosa 23155; [1]) | Minimum Inhibitory Concentration against K. pneumoniae ATCC10031 (K. pneumoniae ATCC10031; [1]) | Fractional Inhibitory Concentration Index of B2088 with the antibiotic (K. pneumonia 4299) | Fractional inhibitory concentration of B2088 used for FICI calculation (K. pneumonia 4299) | Fractional inhibitory concentration of antibiotic used for FICI calculation (K. pneumonia 4299) | Fractional Inhibitory Concentration Index of B2088 with the antibiotic (K. pneumonia 31158) | Fractional inhibitory concentration of B2088 used for FICI calculation (K. pneumonia 31158) | Fractional inhibitory concentration of antibiotic used for FICI calculation (K. pneumonia 31158) | Fractional Inhibitory Concentration Index of B2088 with the antibiotic (K. pneumonia 07955) | Fractional inhibitory concentration of B2088 used for FICI calculation (K. pneumonia 07955) | Fractional inhibitory concentration of antibiotic used for FICI calculation (K. pneumonia 07955) | MIC (P. aeruginosa DR4877/07) | Minimum Inhibitory Concentration against P. aeruginosa 23155 (P. aeruginosa 23155; 23155, 24 h) | Minimum Inhibitory Concentration against K. pneumoniae ATCC10031 (K. pneumoniae ATCC10031; ATCC10031, 24 h) |
| --- | --- | --- | --- | --- | --- | --- | --- | --- | --- | --- | --- | --- | --- | --- | --- | --- | --- | --- | --- |
| CC[C@H](C)CCCCC(=O)N[C@@H](CCN)C(=O)N[C@H](C(=O)N[C@@H](CCN)C(=O)N[C@H]1CCNC(=O)[C@H]([C@@H](C)O)NC(=O)[C@H](CCN)NC(=O)[C@H](CCN)NC(=O)[C@H](CC(C)C)NC(=O)[C@@H](Cc2ccccc2)NC(=O)[C@H](CCN)NC1=O)[C@@H](C)O [Polymyxin B, polymyxin B, reference compound] (X1-[Dab]T[Dab][Dab][Dab][dF]L[Dab][Dab]T; lactam 4-C (inferred); N-terminus assumed) | 1.13 µM | 1.56 µg/mL | (0.5,0.5) | 1.0 | (0.5,0.5) | 0.57 µM | 0.57 µM | – | – | – | – | – | – | – | – | – | – | – | – |
| NC[C@H]1O[C@H](O[C@H]2[C@H](O)[C@@H](O[C@H]3O[C@H](CO)[C@@H](O)[C@H](N)[C@H]3O)[C@H](N)C[C@@H]2N)[C@H](N)C[C@@H]1O [Tobramycin] | – | – | – | – | – | – | – | 0.25 | (0.125,0.125) | (0.125,0.125) | 0.25 | (0.125,0.125) | (0.125,0.125) | 0.75 | 0.5 | 0.25 | 800 µg/mL | – | – |
| CC(C)[C@H](NC(=O)[C@H](CCCCN)NC(=O)[C@H](CCCNC(=N)N)NC(=O)CNC(=O)[C@@H](N)CCCNC(=N)N)C(=O)N[C@H](C(=O)N[C@@H](CCCNC(=N)N)C(=O)N[C@@H](CCCNC(=N)N)C(=O)NCCCC[C@H](NC(=O)[C@H](CCCNC(=N)N)NC(=O)[C@H](CCCNC(=N)N)NC(=O)[C@@H](NC(=O)[C@@H](NC(=O)[C@H](CCCCN)NC(=O)[C@H](CCCNC(=N)N)NC(=O)CNC(=O)[C@@H](N)CCCNC(=N)N)C(C)C)C(C)C)C(=O)N[C@@H](CCCCN)C(=O)O)C(C)C [B2088] (I: H-RGRKVVRRKK-OH / II: H-RGRKVVRR; amide I:9-II:C; N-terminus and C-terminus assumed) | – | – | (0.25,0.25) | – | (0.25,0.25) | – | – | – | – | – | – | – | – | – | – | – | – | 1.4 µM | 1.4 µM |
| COc1c(N2CCNC(C)C2)c(F)cc2c(=O)c(C(=O)O)cn(C3CC3)c12 (stereo not shown) [Gatifloxacin] | – | – | – | – | – | – | – | 0.56 | 0.06 | 0.5 | 0.56 | 0.06 | 0.5 | 0.63 | 0.13 | 0.5 | 31.2 µg/mL | – | – |
